From patent US12091405B2, “Substituted pyrazole compounds as indoleamine 2,3-dioxygenase inhibitors” (Merck Sharp & Dohme LLC, priority 2018, dated 2024) come the findings set out here.

SMILES strings stand for the structures. pIC50: −log10 of the molar value.

Chain of IDO1 (P14902 whole entry): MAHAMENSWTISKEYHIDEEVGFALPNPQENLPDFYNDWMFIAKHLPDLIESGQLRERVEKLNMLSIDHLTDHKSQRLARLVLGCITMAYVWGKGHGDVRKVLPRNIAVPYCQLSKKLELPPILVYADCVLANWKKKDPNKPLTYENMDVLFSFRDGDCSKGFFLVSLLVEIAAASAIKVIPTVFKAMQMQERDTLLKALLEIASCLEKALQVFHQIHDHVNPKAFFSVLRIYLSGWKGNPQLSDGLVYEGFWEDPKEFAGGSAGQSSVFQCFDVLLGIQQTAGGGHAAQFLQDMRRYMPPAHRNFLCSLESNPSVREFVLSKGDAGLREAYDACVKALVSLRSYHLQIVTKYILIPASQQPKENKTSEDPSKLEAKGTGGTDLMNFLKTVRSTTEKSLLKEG

The assay has as its target IDO1 (Homo sapiens, UniProt P14902). The experiment in a line: IDO1 Cellular Assay in HeLa Cells Stimulated with IFNγ. The format is cell-based. The conditions noted are these: IFNγ 100 ng/mL, 300 uM L-tryptophan, about 48 hours, fluorescence readout, read-out: IDO1 HELA Cell Assay, IC50.
As a reminder, the pIC50 is −log10 of the IC50, conventionally taken in molar units. Consider `Cc1cccc(C2CCN(C(=O)Cn3nc(C(=O)N4CCC(O)CC4)c4c3CCC4)CC2)c1C` [Example 41, 1-(4-(2,3-dimethylphenyl)piperidin-1-yl)-2-(3-(4-hydroxypiperidine-1-carbonyl)-5,6-dihydrocyclopenta[c]pyrazol-1(4H)-yl)ethan-1-one], for which the pIC50 is 8.44.

With `Cc1cc(C)c(C2CCN(C(=O)Cn3nc(C(=O)N4C[C@@H](C)O[C@@H](C)C4)c4c3CCC4)CC2)cc1C` [Example 136, 2-{3-[(2R,6S)-2,6-dimethylmorpholine-4-carbonyl]-5,6-dihydrocyclopenta[c]pyrazol-1(4H)-yl}-1-[4-(2,4,5-trimethylphenyl)piperidin-1-yl]ethan-1-one], the pIC50 is 7.07.

On to `C[C@@H]1CN(C(=O)c2nn(CC(=O)N3CCC(c4cc(F)ccc4F)CC3)c3c2CCC3)C[C@H](C)O1` [Example 150, 1-[4-(2,5-difluorophenyl)piperidin-1-yl]-2-{3-[(2R,6S)-2,6-dimethylmorpholine-4-carbonyl]-5,6-dihydrocyclopenta[c]pyrazol-1(4H)-yl}ethan-1-one], for which the pIC50 is 6.91.

Regarding `C[C@@H]1CN(C(=O)c2nn(CC(=O)N3CCC(c4ccc(F)c(Cl)c4)CC3)c3c2CCC3)C[C@H](C)O1` [Example 100, 1-[4-(3-chloro-4-fluorophenyl)piperidin-1-yl]-2-{3-[(2R,6S)-2,6-dimethylmorpholine-4-carbonyl]-5,6-dihydrocyclopenta[c]pyrazol-1(4H)-yl}ethan-1-one], the pIC50 is 7.56.

Take `Cc1cccc(C2CCN(C(=O)Cn3nc(C(=O)N4CC[C@H](O)[C@H](F)C4)c4c3CCC4)CC2)c1C` [Example 59, 1-(4-(2,3-dimethylphenyl)piperidin-1-yl)-2-(3-((3R,4S)-3-fluoro-4-hydroxypiperidine-1-carbonyl)-5,6-dihydrocyclopenta[c]pyrazol-1(4H)-yl)ethanone]: the pIC50 was 8.74.

Regarding `C[C@@H]1CN(C(=O)c2nn(CC(=O)N3CCC(c4ccc(F)c(C(F)(F)F)c4)CC3)c3c2CCC3)C[C@H](C)O1` [Example 151, 2-{3-[(2R,6S)-2,6-dimethylmorpholine-4-carbonyl]-5,6-dihydrocyclopenta[c]pyrazol-1(4H)-yl}-1-{4-[4-fluoro-3-(trifluoromethyl)phenyl]piperidin-1-yl}ethan-1-one], the pIC50 is 6.90.

For the compound `Cc1c(C2CCN(C(=O)Cn3nc(C(=O)N4C[C@@H](C)O[C@@H](C)C4)c4c3CCC4)CC2)ccc(F)c1F` [Example 174, 1-[4-(3,4-difluoro-2-methylphenyl)piperidin-1-yl]-2-{3-[(2R,6S)-2,6-dimethylmorpholine-4-carbonyl]-5,6-dihydrocyclopenta[c]pyrazol-1(4H)-yl}ethan-1-one], the pIC50 was 7.99.

`C[C@@H]1CN(C(=O)c2nn(CC(=O)N3CCC(c4ccccc4)C(F)(F)C3)c3c2CCC3)C[C@H](C)O1` (stereo partly drawn) [Example 72, 1-(3,3-difluoro-4-phenylpiperidin-1-yl)-2-{3-[(2R,6S)-2,6-dimethylmorpholine-4-carbonyl]-5,6-dihydrocyclopenta[c]pyrazol-1(4H)-yl}ethan-1-one]: the pIC50 was 6.84.

`Cc1ccc(C2CCN(C(=O)Cn3nc(C(=O)N4C[C@@H](C)O[C@@H](C)C4)c4c3CCC4)CC2)cc1Cl` [Example 111, 1-[4-(3-chloro-4-methylphenyl)piperidin-1-yl]-2-{3-[(2R,6S)-2,6-dimethylmorpholine-4-carbonyl]-5,6-dihydrocyclopenta[c]pyrazol-1(4H)-yl}ethan-1-one]: the pIC50 was 7.39.

For the compound `Cc1cccc(C2CCN(C(=O)Cn3nc(C(=O)N4CC[C@@H](O)[C@@H](F)C4)c4c3C[C@@H]3C[C@H]43)CC2)c1C` [Example 27, 1-[4-(2,3-dimethylphenyl)piperidin-1-yl]-2-{(3bS,4aS)-3-[(3S,4R)-3-fluoro-4-hydroxypiperidine-1-carbonyl]-3b,4,4a,5-tetrahydro-1H-cyclopropa[3,4]cyclopenta[1,2-c]pyrazol-1-yl}ethan-1-one], the pIC50 was 7.43.

As to `C[C@@H]1CN(C(=O)c2nn(CC(=O)N3CCC(c4ccc(Cl)cc4)CC3)c3c2CCC3)C[C@H](C)O1` [Example 114, 1-[4-(4-chlorophenyl)piperidin-1-yl]-2-{3-[(2R,6S)-2,6-dimethylmorpholine-4-carbonyl]-5,6-dihydrocyclopenta[c]pyrazol-1(4H)-yl}ethan-1-one], the pIC50 is 7.34.

With `Cc1cccc(C2CCN(C(=O)Cn3nc(C(=O)N4CCN(C(=O)CO)CC4)c4c3CCC4)CC2)c1C` [Example 47, 1-(4-(2,3-dimethylphenyl)piperidin-1-yl)-2-(3-(4-(2-hydroxyacetyl)piperazine-1-carbonyl)-5,6-dihydrocyclopenta[c]pyrazol-1(4H)-yl)ethanone], the pIC50 is 7.75.

For `Cc1cc(F)ccc1C1CCN(C(=O)Cn2nc(C(=O)N3CC[C@H](O)[C@H](F)C3)c3c2CCC3)CC1` [Example 56, 1-(4-(4-fluoro-2-methylphenyl)piperidin-1-yl)-2-(3-((3R,4S)-3-fluoro-4-hydroxypiperidine-1-carbonyl)-5,6-dihydrocyclopenta[c]pyrazol-1(4H)-yl)ethanone], the pIC50 was 6.70.

With `C[C@@H]1CN(C(=O)c2nn(CC(=O)N3CCC(c4cc(F)c(F)cc4Cl)CC3)c3c2CCC3)C[C@H](C)O1` [Example 154, 1-[4-(2-chloro-4,5-difluorophenyl)piperidin-1-yl]-2-{3-[(2R,6S)-2,6-dimethylmorpholine-4-carbonyl]-5,6-dihydrocyclopenta[c]pyrazol-1(4H)-yl}ethan-1-one], the pIC50 was 6.85.

Turning to `C[C@@H]1CN(C(=O)c2nn(CC(=O)N3CCC(c4c(F)ccc(F)c4F)CC3)c3c2CCC3)C[C@H](C)O1` [Example 152, 2-{3-[(2R,6S)-2,6-dimethylmorpholine-4-carbonyl]-5,6-dihydrocyclopenta[c]pyrazol-1(4H)-yl}-1-[4-(2,3,6-trifluorophenyl)piperidin-1-yl]ethan-1-one], the pIC50 was 6.90.

With `C[C@@H]1CN(C(=O)c2nn(CC(=O)N3CCC(c4cccc(F)c4C(F)(F)F)CC3)c3c2CCC3)C[C@H](C)O1` [Example 118, 2-{3-[(2R,6S)-2,6-dimethylmorpholine-4-carbonyl]-5,6-dihydrocyclopenta[c]pyrazol-1(4H)-yl}-1-{4-[3-fluoro-2-(trifluoromethyl)phenyl]piperidin-1-yl}ethan-1-one], the pIC50 is 7.30.

For the compound `Cc1cc(F)ccc1C1CCN(C(=O)Cn2nc(C(=O)N3CCO[C@H](CO)C3)c3c2CCC3)CC1` [Example 58, (S)-1-(4-(4-fluoro-2-methylphenyl)piperidin-1-yl)-2-(3-(2-(hydroxymethyl)morpholine-4-carbonyl)-5,6-dihydrocyclopenta[c]pyrazol-1(4H)-yl)ethanone], the pIC50 is 6.34.

Turning to `C[C@@H]1CN(C(=O)c2nn(CC(=O)N3CCC(c4ccccc4Cl)CC3)c3c2CCC3)C[C@H](C)O1` [Example 157, 1-[4-(2-chlorophenyl)piperidin-1-yl]-2-{3-[(2R,6S)-2,6-dimethylmorpholine-4-carbonyl]-5,6-dihydrocyclopenta[c]pyrazol-1(4H)-yl}ethan-1-one], the pIC50 is 6.83.

Regarding `C[C@@H]1CN(C(=O)c2nn(CC(=O)N3CCC(c4cccc(OC(F)(F)F)c4)CC3)c3c2CCC3)C[C@H](C)O1` [Example 160, 2-{3-[(2R,6S)-2,6-dimethylmorpholine-4-carbonyl]-5,6-dihydrocyclopenta[c]pyrazol-1(4H)-yl}-1-{4-[3-(trifluoromethoxy)phenyl]piperidin-1-yl}ethan-1-one], the pIC50 is 6.79.

Consider `Cc1cc(F)cc(C2CCN(C(=O)Cn3nc(C(=O)N4C[C@@H](C)O[C@@H](C)C4)c4c3CCC4)CC2)c1` [Example 90, 2-{3-[(2R,6S)-2,6-dimethylmorpholine-4-carbonyl]-5,6-dihydrocyclopenta[c]pyrazol-1(4H)-yl}-1-[4-(3-fluoro-5-methylphenyl)piperidin-1-yl]ethan-1-one], for which the pIC50 was 8.00.

On to `C[C@@H]1CN(C(=O)c2nn(CC(=O)N3CCC(c4cccc5sccc45)CC3)c3c2CCC3)C[C@H](C)O1` [Example 88, 1-[4-(1-benzothiophen-4-yl)piperidin-1-yl]-2-{3-[(2R,6S)-2,6-dimethylmorpholine-4-carbonyl]-5,6-dihydrocyclopenta[c]pyrazol-1(4H)-yl}ethan-1-one], for which the pIC50 is 8.08.

On to `Cc1cc(Cl)ccc1C1CCN(C(=O)Cn2nc(C(=O)N3C[C@@H](C)O[C@@H](C)C3)c3c2CCC3)CC1` [Example 106, 1-[4-(4-chloro-2-methylphenyl)piperidin-1-yl]-2-{3-[(2R,6S)-2,6-dimethylmorpholine-4-carbonyl]-5,6-dihydrocyclopenta[c]pyrazol-1(4H)-yl}ethan-1-one], for which the pIC50 is 7.52.

For `Cc1cccc(C2CCN(C(=O)Cn3nc(C(=O)N4CC[C@@H](O)[C@H](C)C4)c4c3CCC4)CC2)c1C` [Example 39, 1-(4-(2,3-dimethylphenyl)piperidin-1-yl)-2-(3-((3R,4R)-4-hydroxy-3-methylpiperidine-1-carbonyl)-5,6-dihydrocyclopenta[c]pyrazol-1(4H)-yl)ethan-1-one], the pIC50 is 8.72.

Turning to `Cc1cccc(C2CCN(C(=O)Cn3nc(C(=O)N4CC[C@H](O)[C@H](F)C4)c4c3C[C@@H]3C[C@H]43)CC2)c1C` [Example 29, 1-[4-(2,3-dimethylphenyl)piperidin-1-yl]-2-{(3bS,4aS)-3-[(3R,4S)-3-fluoro-4-hydroxypiperidine-1-carbonyl]-3b,4,4a,5-tetrahydro-1H-cyclopropa[3,4]cyclopenta[1,2-c]pyrazol-1-yl}ethan-1-one], the pIC50 is 7.27.

Turning to `C[C@@H]1CN(C(=O)c2nn(CC(=O)N3CCC(C4CCCCC4)CC3)c3c2CCC3)C[C@H](C)O1` [Example 30, 1-(4-cyclohexylpiperidin-1-yl)-2-{3-[(2R,6S)-2,6-dimethylmorpholine-4-carbonyl]-5,6-dihydrocyclopenta[c]pyrazol-1(4H)-yl}ethan-1-one], the pIC50 was 6.52.

Regarding `C[C@@H]1CN(C(=O)c2nn(CC(=O)N3CCC(c4cccc5cnccc45)CC3)c3c2CCC3)C[C@H](C)O1` [Example 171, 2-{3-[(2R,6S)-2,6-dimethylmorpholine-4-carbonyl]-5,6-dihydrocyclopenta[c]pyrazol-1(4H)-yl}-1-[4-(isoquinolin-5-yl)piperidin-1-yl]ethan-1-one], the pIC50 was 6.36.
